Assay results from PubChem BioAssay AID789 (SRMLSC, 2007).
Active and inactive are the calls of the source. How the calls were made is not given here.

What was measured:
[1] = growth inhibition of apl2Δ yeast, dose response, selectivity assay for post-Golgi transport modulator project, S. cerevisiae, secondary screen, background strain comparison (AID 789); settings: S. cerevisiae background (wild-type parent) strain growth inhibition
[2] = tested on: S. cerevisiae apl2Δ mutant growth inhibition; experiment: as above

Compound | IC50 [1] [µM] | IC50 [2]
O=Cc1cc2ccccc2nc1SCc1ccc(Cl)cc1 | > 10 | > 10 µM (inactive)
C/C(=N\N=C(/N)SC1CC(=O)N(c2ccc(Cl)c(Cl)c2)C1=O)c1cccs1 (stereo unspecified) | 5.98 | > 10 µM (inactive)
Cc1cccc(-n2c(N)c(C(=O)NCCN3CCOCC3)c3nc4ccccc4nc32)c1 | > 10 | > 10 µM (inactive)
COc1ccc(NC(=O)c2ccc(CN3CCN(c4ccccc4)CC3)cc2)cc1 | > 10 | > 10 µM (inactive)
COc1cc(CN2CCN(c3ccc(C)cc3)CC2)cc([N+](=O)[O-])c1O | > 10 | > 10 µM (inactive)
CCOC(=O)c1c(CN2CCCCC2C)oc2ccc(OC)cc12 (stereo unspecified) | > 10 | > 10 µM (inactive)
Cc1cc(O)c(/C=N/Nc2ccc(Cl)cc2)c(=O)o1 | 4.69 | 9.39 µM (inactive)
O=C(NCCSCc1ccc(Cl)cc1Cl)c1ccc(CN2CCOCC2)cc1 | > 10 | > 10 µM (inactive)
Cc1ccn2cc(-c3nonc3C)cc2c1 | > 10 | > 10 µM (inactive)
O=C(C1CCN(S(=O)(=O)c2cccs2)CC1)N1CCCCCC1 | > 10 | > 10 µM (inactive)
CCCCS(=O)(=O)/C=C\C=C/S(=O)(=O)CCCC | 13.9 | 19.8 µM (inactive)
O=C(OCn1nnc2ccccc2c1=O)c1cn(-c2ccccc2)nc1-c1cccnc1 | > 10 | > 10 µM (inactive)
CC(C)(C)n1nnnc1CN(Cc1cccnc1)Cc1ccccc1Cl | > 10 | > 10 µM (inactive)
O=C(NC(C(=O)c1ccccc1)N1CCCCC1)c1ccccc1 (stereo unspecified) | > 10 | > 10 µM (inactive)
Cc1cccc(-c2c3c(=O)n(C)c(=O)n(C)c3cn2C2CCCCC2)c1 | > 10 | > 10 µM (inactive)
COc1ccccc1N1CCN(C2CCN(C(=O)c3cc(OC)c(OC)c(OC)c3)CC2)CC1 | > 10 | > 10 µM (inactive)
COC(=O)C1=CN(CCCN2CCCC2=O)C=C(C(=O)OC)C1c1ccccc1C(F)(F)F | > 10 | > 10 µM (inactive)
c1ccc(Nc2cc(-c3ccccc3)nc3ncnn23)cc1 | > 10 | > 10 µM (inactive)
COc1ccc(Nc2nc(N)nc(CSc3nnc(N)s3)n2)cc1 | > 10 | > 10 µM (inactive)
CC1=CC(C)(C)Nc2ccc(OC(=O)CN3C(=O)c4cccc5cccc(c45)C3=O)cc21 | > 10 | > 10 µM (inactive)

Compound | IC50 [1] [µM] | IC50 [2]
COCCCNc1ccnc2c(Cl)cccc12 | > 10 | > 10 µM (inactive)
Cc1cc(=O)oc2c(CN3CCCCC3)c(O)c(Cl)cc12 | > 10 | > 10 µM (inactive)
CCn1c(=O)[nH]c2cc(C(=O)N3CCN(c4ccccc4)CC3)ccc2c1=O | > 10 | > 10 µM (inactive)
COc1ccc2oc(=O)c(-c3nnc(NCc4ccco4)s3)cc2c1 | > 10 | > 10 µM (inactive)
Cc1nnc(-c2cccc(Br)c2)c2cn(-c3ccccc3)nc12 | > 10 | > 10 µM (inactive)
O=[N+]([O-])c1cc(C(F)(F)F)ccc1N/N=C/c1cc2ccccc2nc1Cl | > 10 | > 10 µM (inactive)
COc1ccc2nc(NCCCNC(=O)c3cc(OC)c(OC)c(OC)c3)c(C#N)cc2c1 | > 10 | > 10 µM (inactive)
Cc1cc(C)nc(NC(=O)CSc2nn(C)c(=S)s2)n1 | > 10 | > 10 µM (inactive)
O=S(=O)(NCC(c1cccnc1)N1CCN(c2ccccc2)CC1)c1cccs1 (stereo unspecified) | > 10 | > 10 µM (inactive)
NC(=O)c1ccsc1NC(=O)c1nc(-c2ccccc2)n(-c2ccccc2)n1 | > 10 | > 10 µM (inactive)
O=C(Cc1cccs1)Nc1nc2c(s1)CCCC2 | > 10 | > 10 µM (inactive)
Cc1ccc(C(=O)c2c(NC(=O)c3ccncc3)sc3c2CCCC3)cc1 | > 10 | > 10 µM (inactive)
N#CC1=C2SCC(O)(c3ccccc3)N2C(=O)CC1c1ccccc1 (stereo unspecified) | > 10 | > 10 µM (inactive)
O=c1cccc2n1CC1CC2CN(S(=O)(=O)c2ccccc2)C1 (stereo unspecified) | > 10 | > 10 µM (inactive)
Nc1cc(N)c(OCC(F)(F)F)cc1OCC(F)(F)F | > 10 | > 10 µM (inactive)
Cc1ccc(NS(=O)(=O)c2cc(C(=O)N3CCOCC3)ccc2C)cc1 | > 10 | > 10 µM (inactive)
CN1CCN(CCCNC(=O)Cn2nc(-c3ccccc3)ccc2=O)CC1 | > 10 | > 10 µM (inactive)
CCc1cc(=O)oc2cc(C)c(CN3CCCC(C)C3)c(O)c12 (stereo unspecified) | > 10 | > 10 µM (inactive)
COc1ccc(/C=C2\SC(=S)N(NC(=O)c3csc4c3CCCC4)C2=O)cc1 | > 10 | > 10 µM (inactive)
CCn1c(SCC(=O)N2CCCc3ccccc32)nnc1-c1ccco1 | > 10 | > 10 µM (inactive)

Compound | IC50 [1] [µM] | IC50 [2]
COc1cccc(NC(=O)c2ccc(CN3CCN(c4ccccc4)CC3)cc2)c1 | > 10 | > 10 µM (inactive)
OC(COCc1ccc(Cl)cc1)CN1CC=C(c2ccccc2)CC1 (stereo unspecified) | 20.8 | 8.58 µM
CCn1c(-c2c[nH]c3ccccc23)n[nH]c1=S | > 10 | > 10 µM (inactive)
O=C(COc1ccc(Cl)cc1Cl)NCCCN1CCOCC1 | > 10 | > 10 µM (inactive)
O=C1CC(N2CCN(c3ccc(Cl)c(Cl)c3)CC2)C(=O)N1 (stereo unspecified) | > 10 | > 10 µM (inactive)
O=C1c2cccc3c([N+](=O)[O-])ccc(c23)C(=O)N1c1ccc(Cl)cn1 | 6.08 | 14.5 µM (inactive)
Cc1ccc(/C=N/n2cnc3sc(-c4ccccc4)cc3c2=O)o1 | > 10 | > 10 µM (inactive)
CCc1n[nH]c2c1/C(=N\O)CC(C)(C)C2 | > 10 | > 10 µM (inactive)
O=S(=O)(c1ccc(Cl)cc1)N1CCN(C2CCN(Cc3ccccc3)CC2)CC1 | > 10 | > 10 µM (inactive)
CCCc1cc(NCCCCO)n2c(nc3ccccc32)c1C#N | > 10 | > 10 µM (inactive)
Cc1cccc(OCC(=O)O/N=C(\N)Cc2ccc(Cl)cc2)c1 | 10.4 | > 10 µM (inactive)
COc1ccc(N2CCN(c3oc(-c4ccco4)nc3C#N)CC2)cc1 | > 10 | > 10 µM (inactive)
COc1ccc(C(=O)c2c(C(F)(F)F)oc3c2C(=O)c2ccccc2C3=O)cc1 | 2.32 | > 10 µM (inactive)
O=C(NCc1ccco1)C(c1cccs1)N(C(=O)Cc1cccs1)c1ccccc1 (stereo unspecified) | > 10 | > 10 µM (inactive)
Cc1cc(NCCCN2CCOCC2)n2ncc(-c3ccc(Cl)cc3)c2n1 | > 10 | > 10 µM (inactive)
Cc1ccc(S(=O)(=O)NC(CC(C)C)C(=O)Oc2ccc3c4c(c(=O)oc3c2)CCC4)cc1 (stereo unspecified) | > 10 | > 10 µM (inactive)
Cc1cc(=O)[nH]c(SCC(=O)c2ccc(C)c(C)c2)n1 | 2.31 | 6.63 µM (inactive)
COc1cc2[nH]c(=S)n(CCCN3CCOCC3)c(=O)c2cc1OC | > 10 | > 10 µM (inactive)
